US5578324A, “Peptide proteinaceous drug nasal powder composition” (Teijin Limited, priority 1993, dated 1996)
Structures can show the parent of a compound that is named as a salt. Where a SMILES comes first, the peptide text is derived from it. [ ]: non-standard residue; d: D form. The star is where a group is joined. Sta = CC(C)C[C@H](N)[C@@H](O)CC(=O)O; Isovaleryl = CC(C)CC(=O)*

What was measured:
[1] = test system: Human Nasal Mucosal Homogenate; assay: Inhibitory effect on degradation of peptide proteinaceous drug in human nasal mucosal homogenate; assay type: biochemical; set-up: concentration or dose not given beside the values; conditions: 37° C., HPLC; for Inhibitor (%) ACTH: degradation of adrenocorticotropic hormone (ACTH); for Inhibitor (%) CGRP: degradation of calcitonin gene related peptide (CGRP); for Inhibitor (%) GLU: degradation of glucagon (GLU); for Inhibitor (%) GHRH: degradation of growth hormone releasing hormone (GHRH); for Inhibitor (%) INS: degradation of insulin (INS); for Inhibitor (%) LHRH: degradation of luteinizing hormone releasing hormone (LHRH); for Inhibitor (%) PTH: degradation of parathyroid hormone (PTH); for Inhibitor (%) PDGF: degradation of platelet-derived growth factor (PDGF); for Inhibitor (%) SCT: degradation of salmon calcitonin (SCT); for Inhibitor (%) GIF: degradation of somatostatin (GIF); for Inhibitor (%) S.p: degradation of substance P (S.p)
Experimental: A homogenate solution was prepared from human nasal mucosa to give 1 mg/ml of protein. […] The amounts of the peptide proteinaceous drug not yet cleaved after a predetermined time were measured by HPLC to find the amounts of decomposition. The inhibition rates were calculated by the following formula.
Inhibition rate (%)=(A-B)/A×100
A: Amount of peptide proteinaceous drug cleaved when enzyme inhibitor or absorption accelerant of present invention is not added to homogenate
B: Amount of peptide proteinaceous drug cleaved when enzyme inhibitor or absorption accelerant of present invention is added to homogenate

[2] = test system: Human Nasal Mucosal Homogenate; assay: Activity of protease in human nasal mucosal homogenate (cleavage of synthesized substrates); assay type: biochemical; conditions: substrate 0.1 mM, 37° C., amount of substrate cleaved by HPLC
Experimental: A homogenate solution was prepared from human nasal mucosa to give 1 mg/ml of protein. Next, synthesis substrates corresponding to the various proteases shown in Table 1 were added to 0.5 ml portions of the homogenate solution to give 0.1 mM concentrations. The results were incubated at 37° C. The amounts of the substrates remaining after a predetermined time were measured by HPLC to find the amounts of substrates cleaved and find the activity of the various proteases.

[3] = Promotion of nasal absorption of peptide proteinaceous drug; conditions: in vivo
[4] = target: T1, trypsin (Bos taurus, UniProt P00760); assay: Trypsin inhibiting activity; assay type: biochemical
T1 construct: gene PRSS1
T1 sequence (P00760 24-246): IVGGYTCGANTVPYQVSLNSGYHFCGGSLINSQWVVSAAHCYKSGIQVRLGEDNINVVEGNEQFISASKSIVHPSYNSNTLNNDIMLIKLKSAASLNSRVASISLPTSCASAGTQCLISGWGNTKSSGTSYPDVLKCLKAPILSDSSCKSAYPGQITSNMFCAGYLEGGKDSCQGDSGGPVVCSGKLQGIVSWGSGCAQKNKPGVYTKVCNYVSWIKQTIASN

Row | trypsin inhibiting activity [4] | Compound | Inhibitor (%) ACTH [1] [%] | Inhibitor (%) CGRP [1] [%] | Inhibitor (%) GLU [1] [%] | Inhibitor (%) GHRH [1] [%] | Inhibitor (%) INS [1] [%] | Inhibitor (%) LHRH [1] [%] | Inhibitor (%) PTH [1] [%] | Inhibitor (%) PDGF [1] [%] | Inhibitor (%) SCT [1] [%] | Inhibitor (%) GIF [1] [%] | Inhibitor (%) S.p [1] [%] | Activity (nM/h/mg protein) [2] [nM/h/mg protein] | effect of promoting nasal absorption [3]
1 |  | CCOC(=O)c1ccc(OC(=O)CCCCCNC(=N)N)cc1 [Gabexate] | 48 | 49 | 56 | 40 | 46 | 27 | 44 | 43 | 53 | 56 | 40 |  | 
2 |  | Bz--Arg--MCA |  |  |  |  |  |  |  |  |  |  |  | 1 | 
3 |  | NCCCCCC(=O)O [ε-ACA, ε-Amino caproic acid] | 0 | 0 | 0 | 0 | 0 | 0 | 0 | 0 | 0 | 0 | 0 |  | no effect of promoting nasal absorption was observed
4 |  | NCc1ccc(C(=O)O)cc1 [p-Aminomethyl benzoic acid] | 84 | 72 | 60 | 70 | 74 | 54 | 80 | 65 | 76 | 85 | 58 |  | 
5 | no trypsin inhibiting activity | NC[C@H]1CC[C@H](C(=O)c2ccc(CCC(=O)O)cc2)CC1 [Rotraxate hydrochloride, 3-((p-(trans-4-aminomethylcyclohexylcarbonyl)phenyl)) propionic acid] | 74 | 75 | 62 | 75 | 84 | 56 | 76 | 59 | 80 | 86 | 53 |  | 
6 |  | NCc1ccccc1 [Benzylamine] | 80 | 76 | 48 | 68 | 68 | 49 | 80 | 52 | 70 | 78 | 54 |  | 
7 | no trypsin inhibiting activity | NC[C@H]1CC[C@H](C(=O)O)CC1 [Tranexamic acid, trans-4-(aminomethyl) cyclohexane carboxylic acid] | 80 | 75 | 68 | 75 | 79 | 58 | 78 | 68 | 73 | 80 | 65 |  | 
8 |  | CC(C)CC(=O)N[C@H](C(=O)N[C@H](C(=O)N[C@@H](CC(C)C)[C@@H](O)CC(=O)N[C@@H](C)C(=O)N[C@@H](CC(C)C)[C@@H](O)CC(=O)O)C(C)C)C(C)C [Pepstatin] (Isovaleryl-VV[Sta]A[Sta]-OH) | 4 | 10 | 8 | 0 | 15 | 0 | 10 | 0 | 10 | 0 | 0 |  | 
9 |  | CC(C)C[C@H](NC(=O)[C@@H](NC(=O)N[C@@H](Cc1ccccc1)C(=O)O)[C@@H]1CCN=C(N)N1)C(=O)N[C@H](C=O)Cc1ccccc1 [Chymostatin] | 12 | 23 | 35 | 25 | 22 | 16 | 15 | 10 | 38 | 25 | 15 |  | 
10 |  | O=C(O)CNC(=O)C(CS)Cc1ccccc1 (stereo not shown) [Thiorphan] | 0 | 0 | 0 | 0 | 0 | 0 | 0 | 0 | 0 |  | 0 |  | 
11 | no trypsin inhibiting activity | NC[C@H]1CC[C@H](C(=O)Oc2ccc(CCC(=O)O)cc2)CC1 [Cetraxate hydrochloride, trans-(4-aminomethyl) cyclohexane carboxylic acid p-(2-carboxyethyl)phenyl ester] | 70 | 70 | 54 | 70 | 80 | 48 | 75 | 58 |  | 80 | 54 |  | 
12 |  | Cc1ccc(S(=O)(=O)N[C@@H](Cc2ccccc2)C(=O)CCl)cc1 [TPCK] | 8 | 0 | 5 | 0 | 7 | 5 | 10 | 3 | 0 | 11 | 10 |  | 

Row | Compound | trypsin inhibiting activity [4] | Inhibitor (%) ACTH [1] [%] | Inhibitor (%) CGRP [1] [%] | Inhibitor (%) GLU [1] [%] | Inhibitor (%) GHRH [1] [%] | Inhibitor (%) INS [1] [%] | Inhibitor (%) LHRH [1] [%] | Inhibitor (%) PTH [1] [%] | Inhibitor (%) PDGF [1] [%] | Inhibitor (%) SCT [1] [%] | Inhibitor (%) GIF [1] [%] | Inhibitor (%) S.p [1] [%] | Activity (nM/h/mg protein) [2] [nM/h/mg protein] | effect of promoting nasal absorption [3]
13 | NCc1ccc(S(N)(=O)=O)cc1 [Mafenide acetate, 4-(aminomethyl) benzenesulfamine] | no trypsin inhibiting activity | 78 | 70 | 56 | 66 | 52 | 32 | 75 | 59 | 67 | 74 | 55 |  | 
14 | NCCc1ccc(O)c(O)c1 [Dopamine hydrochloride, 4-(2-aminoethyl)-1,2 benzenediol] | no trypsin inhibiting activity | 77 | 72 | 50 | 50 | 52 | 29 | 70 | 55 | 64 | 72 | 60 |  | 
